Measured values reported in patent US20250313546A1, “NUCLEIC ACID BINDERS” (UNIVERSITY OF STRATHCLYDE, priority 2022, published 2025).
pIC50: −log10 of the molar value. ≈ marks a conversion by molar mass, not a printed value.

What was measured:
[1] = system: T. vaginalis; test: Trichomonas resorufin assay; type: cell-based; details: for pIC50: Trichomonas vaginalis, read-out: IC50 T. vaginalis
[2] = system: Candida auris (H.17.157); details: Candidozyma auris, read-out: MIC99 Candida auris
[3] = system: PolyAU double stranded RNA; test: Fluorescence intercalator displacement (FID) assay, SYBR-safe probe; details: 20 μM compound, 30° C., lower % = stronger binding
Summary of the method: (§1)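 Compound at 20 μM mixed with 3.76 ng/mL polyAU dsRNA or salmon genomic dsDNA and 12500-fold diluted SybrSafe in 1 mM phosphate buffer pH 7.4, then heated to 30 °C and fluorescence read. Reduction is expressed as normalised %, with nucleic acid plus probe as maximum and probe alone as minimum.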

[4] = system: Genomic double stranded DNA (salmon); test: as above; details: 20 μM compound, 30° C., lower % = stronger binding
Summary of the method: as §1

[5] = system: Staphylococcus aureus (ATCC 43300); test: Antibacterial MIC, broth microdilution (CLSI); type: cell-based; details: for MIC80: Staphylococcus aureus, ATCC43300, read-out: MIC80 S. aureus; for S. aureus Selectivity Indices, Group / S. aureus Selectivity Index (SI): SI, IC50 (μM)/MIC80 (μM), HEK293 cytotoxicity; for S. aureus Selectivity Index (SI): numeric value
[6] = system: Candida glabrata (ACPF3309); details: Nakaseomyces glabratus, read-out: MIC99 Candida glabrata
[7] = system: Escherichia coli (ATCC 25922); test: Antibacterial MIC, broth microdilution (CLSI); type: cell-based; details: Escherichia coli, ATCC25922; read-out: MIC80 E. coli
[8] = system: Enterococcus faecalis (ATCC 51299); test: Antibacterial MIC, broth microdilution (CLSI); type: cell-based; details: for MIC80: Enterococcus faecalis, ATCC51299, read-out: MIC80 E. faecalis
[9] = system: A. fumigatus A1160 (MFIG001); details: Aspergillus fumigatus, read-out: MIC99 A. fumigatus A1160
[10] = system: C. neoformans (F10025); details: Cryptococcus neoformans, read-out: MIC99 C. neoformans
Experimental: The Minimum Inhibitory Concentration (MIC, at 99% inhibition) of the compounds was determined using the broth microdilution method as recommended by EUCAST (EUCAST Definitive Document E.DEF 9.3.2, Method for the determination of broth dilution minimum inhibitory concentrations of antifungal agents for conidia forming moulds and EUCAST Definitive Document E.DEF 7.3.2 Method for the determination of broth dilution minimum inhibitory concentrations of antifungal agents for yeasts).

[11] = system: Rhizopus arrhizus (NEQAS12.35321); details: read-out: MIC99 Rhizopus arrhizus
[12] = SI, IC50 (μM)/IC50 (μM), HEK293 cytotoxicity, Alkyl Amidines and NH Pyrroles
[13] = SI, IC50 (μM)/MIC80 (μM), HEK293 cytotoxicity, Alkyl Amidines and NH Pyrroles

SMILES	T. vaginalis Selectivity Indices, Group [1, 12]	T. vaginalis Selectivity Index (SI) ([1]; SI, IC50 (μM)/IC50 (μM), HEK293 cytotoxicity, numeric value)	MIC99 [2] [µg/mL]	% Normalised Fluorescence with polyAU RNA [3] [%]	% Normalised Fluorescence with gDNA [4] [%]	MIC80 [5] [µM]	MIC99 [6] [µg/mL]	MIC80 [7] [µM]	E. faecalis Selectivity Indices, Group [8, 13]	MIC99 [9] [µg/mL]	MIC99 [10] [µg/mL]	MIC99 [11] [µg/mL]	pIC50 [1]	S. aureus Selectivity Indices, Group ([5]; Alkyl Amidines and NH Pyrroles)	MIC80 [8] [µM]	S. aureus Selectivity Index (SI) [5]	T. vaginalis Selectivity Indices, Group ([1]; SI, IC50 (μM)/IC50 (μM), HEK293 cytotoxicity, Quaternary ammoniums)	S. aureus Selectivity Indices, Group ([5]; Quaternary ammoniums)	E. faecalis Selectivity Indices, Group ([8]; SI, IC50 (μM)/MIC80 (μM), HEK293 cytotoxicity, Quaternary ammoniums)	E. faecalis Selectivity Index (SI) ([8]; SI, IC50 (μM)/MIC80 (μM), HEK293 cytotoxicity, numeric value)
CCNC(=N)CCNC(=O)c1cc(NC(=O)c2cc(NC(=O)c3ccc(/C=C/c4ccc(OC)cc4)nc3)cn2C)cn1C [Ia24, (E)-N-(5-((5-((3-(ethylamino)-3-iminopropyl)carbamoyl)-1-methyl-1H-pyrrol-3-yl)carbamoyl)-1-methyl-1H-pyrrol-3-yl)-6-(4-methoxystyryl)nicotinamide]	D (Group D: SI > 32)	69	> 50	4	1	< 5	5 to 25 (≈ 8.38 to 41.9 µM)	> 100	C (Group C: 5 < SI <= 10)	25 to 50 (≈ 41.9 to 83.8 µM)	5 to 25 (≈ 8.38 to 41.9 µM)	> 50								
[H]/N=C(\CCNC(=O)c1cc(NC(=O)c2cc(NC(=O)c3ccc(C=Cc4ccc(N(C)C)cc4)nc3)cn2C)cn1C)NCCCCCCCCC [Ia32, (E)-6-(4-(dimethylamino)styryl)-N-(5-((5-((3-imino-3-(nonylamino)propyl)carbamoyl)-1-methyl-1H-pyrrol-3-yl)carbamoyl)-1-methyl-1H-pyrrol-3-yl)nicotinamide]			> 50	23	67	< 5	5 to 25 (≈ 7.06 to 35.3 µM)	> 100		> 50	5 to 25 (≈ 7.06 to 35.3 µM)	> 50	< 4.30	C (Group C: 5 < SI <= 10)	> 100					
CCCCNC(=N)CCNC(=O)c1cc(NC(=O)c2cc(NC(=O)c3ccc(/C=C/c4cnc5ccccc5c4)cc3)cn2C)cn1C [Ia34, (E)-N-(3-(butylamino)-3-iminopropyl)-1-methyl-4-(1-methyl-4-(4-(2-(quinolin-3-yl)vinyl)benzamido)-1H-pyrrole-2-carboxamido)-1H-pyrrole-2-carboxamide]			> 50	6	7	< 5	5 to 25 (≈ 7.75 to 38.8 µM)	> 100		> 50	25 to 50 (≈ 38.8 to 77.5 µM)	> 50	5.30 to 6.00	D (D: SI > 10)	5 to 25 (≈ 3.22 to 16.1 µg/mL)	15				
CCCCCNC(=N)CCNC(=O)c1cc(NC(=O)c2cc(NC(=O)c3ccc(/C=C/c4cnc5ccccc5c4)cc3)cn2C)cn1C [Ia35, (E)-N-(3-imino-3-(pentylamino)propyl)-1-methyl-4-(1-methyl-4-(4-(2-(quinolin-3-yl)vinyl)benzamido)-1H-pyrrole-2-carboxamido)-1H-pyrrole-2-carboxamide]			> 50	3	21	< 5	5 to 25 (≈ 7.59 to 37.9 µM)	> 100		> 50	25 to 50 (≈ 37.9 to 75.9 µM)	> 50	5.30 to 6.00		5 to 25 (≈ 3.29 to 16.5 µg/mL)					
Cn1cc(NC(=O)c2cc(NC(=O)c3ccc(/C=C/c4cnc5ccccc5c4)cc3)cn2C)cc1C(=O)NCCC(=N)NCCC1CCOCC1 [Ia44, (E)-N-(3-imino-3-((2-(tetrahydro-2H-pyran-4-yl)ethyl)amino)propyl)-1-methyl-4-(1-methyl-4-(4-(2-(quinolin-3-yl)vinyl)benzamido)-1H-pyrrole-2-carboxamido)-1H-pyrrole-2-carboxamide]				19	16	5 to 25 (≈ 3.5 to 17.5 µg/mL)	5 to 25 (≈ 7.13 to 35.7 µM)	> 100		> 50	25 to 50 (≈ 35.7 to 71.3 µM)		4.30 to 5.30		5 to 25 (≈ 3.5 to 17.5 µg/mL)					
[H]/N=C(\CCNC(=O)c1cc(NC(=O)c2cc(NC(=O)c3ccc(C=Cc4ccc5nonc5c4)cc3)cn2C)cn1C)NCCC1CCOCC1 [Ia45, (E)-4-(4-(2-(benzo[c][1,2,5]oxadiazol-5-yl)vinyl)benzamido)-N-(5-((3-imino-3-((2-(tetrahydro-2H-pyran-4-yl)ethyl)amino)propyl)carbamoyl)-1-methyl-1H-pyrrol-3-yl)-1-methyl-1H-pyrrole-2-carboxamide]				3	9	5 to 25 (≈ 3.46 to 17.3 µg/mL)	25 to 50 (≈ 36.1 to 72.3 µM)	> 100		> 50	5 to 25 (≈ 7.23 to 36.1 µM)		4.30 to 5.30	B (Group B: 3 < SI <= 5)	> 100					
CN1CCN(C(=N)CCNC(=O)c2cc(NC(=O)c3cc(NC(=O)c4ccc(/C=C/c5cnc6ccccc6c5)cc4)cn3C)cn2C)CC1 [Ib3, (E)-N-(3-imino-3-(4-methylpiperazin-1-yl)propyl)-1-methyl-4-(1-methyl-4-(4-(2-(quinolin-3-yl)vinyl)benzamido)-1H-pyrrole-2-carboxamido)-1H-pyrrole-2-carboxamide]				5	13	< 5	5 to 25 (≈ 7.44 to 37.2 µM)	> 100		> 50	5 to 25 (≈ 7.44 to 37.2 µM)		4.30 to 5.30	B (Group B: 3 < SI <= 5)	5 to 25 (≈ 3.36 to 16.8 µg/mL)					
Cn1cc(NC(=O)c2cc(NC(=O)c3ccc(/C=C/c4cnc5ccccc5c4)cc3)cn2C)cc1C(=O)NCCC(=N)N1CCOCC1 [Ib5, (E)-N-(3-imino-3-morpholinopropyl)-1-methyl-4-(1-methyl-4-(4-(2-(quinolin-3-yl)vinyl)benzamido)-1H-pyrrole-2-carboxamido)-1H-pyrrole-2-carboxamide]	C (Group C: 16 < SI <= 32)			13	22	< 5	< 5	> 100	C (Group C: 5 < SI <= 10)	5 to 25 (≈ 7.59 to 37.9 µM)	5 to 25 (≈ 7.59 to 37.9 µM)	25 to 50 (≈ 37.9 to 75.9 µM)	5.30 to 6.00	D (D: SI > 10)	< 5	27				
[H]/N=C(\CCNC(=O)c1cc(NC(=O)c2cc(NC(=O)c3ccc(C=Cc4ccc5nonc5c4)cc3)cn2C)cn1C)N1CCOCC1 [Ib6, (E)-4-(4-(2-(benzo[c][1,2,5]oxadiazol-5-yl)vinyl)benzamido)-N-(5-((3-imino-3-morpholinopropyl)carbamoyl)-1-methyl-1H-pyrrol-3-yl)-1-methyl-1H-pyrrole-2-carboxamide]				49	11	5 to 25 (≈ 3.25 to 16.2 µg/mL)	25 to 50 (≈ 38.5 to 77 µM)	> 100			25 to 50 (≈ 38.5 to 77 µM)	5 to 25 (≈ 7.7 to 38.5 µM)	< 4.30		25 to 100 (≈ 16.2 to 65 µg/mL)					
[H]/N=C(\CCNC(=O)c1cc(NC(=O)c2cc(NC(=O)c3ccc(C=Cc4ccc5nonc5c4)cc3)cn2C)cn1C)N1CCSCC1 [Ib8, (E)-4-(4-(2-(benzo[c][1,2,5]oxadiazol-5-yl)vinyl)benzamido)-N-(5-((3-imino-3-thiomorpholinopropyl)carbamoyl)-1-methyl-1H-pyrrol-3-yl)-1-methyl-1H-pyrrole-2-carboxamide]				4	15	< 5	< 5	> 100		5 to 25 (≈ 7.51 to 37.5 µM)	5 to 25 (≈ 7.51 to 37.5 µM)	5 to 25 (≈ 7.51 to 37.5 µM)	5.30 to 6.00		< 5					
COCCOCC[N+](C)(C)CCNC(=O)c1cc(NC(=O)c2cc(NC(=O)c3ccc(/C=C/c4cnc5ccccc5c4)cc3)cn2C)cn1C [Ic18, (E)-2-(2-methoxyethoxy)-N,N-dimethyl-N-(2-(1-methyl-4-(1-methyl-4-(4-(2-(quinolin-3-yl)vinyl)benzamido)-1H-pyrrole-2-carboxamido)-1H-pyrrole-2-carboxamido)ethyl)ethan-1-aminium]			> 50			< 5	< 5	> 100		> 50	5 to 25	25 to 50	5.30 to 6.00		< 5		C (Group C: 1.5 < SI <= 3)	C (Group C: 5 < SI <= 10)	D (Group D: SI > 5)	5.1
